Data on 14 compounds can be found in US20220144838A1, “Compounds as Inhibitors of Macrophage Migration Inhibitory Factor” (NANJING IMMUNOPHAGE BIOTECH CO., LTD., priority 2019, published 2022).

The target in the test is T1, MIF (Homo sapiens, UniProt P14174).
T1 sequence (P14174 2-115 limits assumed): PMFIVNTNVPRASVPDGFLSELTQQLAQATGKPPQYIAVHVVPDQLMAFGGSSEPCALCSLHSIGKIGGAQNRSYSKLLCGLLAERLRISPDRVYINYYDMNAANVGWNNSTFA
The test can be described thus: MIF tautomerase assay using pHPP as substrate. It is filed as biochemical. The following applies: inhibition of the MIF enzyme in vitro; mean of multiple test results; read-out: Tautomerase Inhibition pIC50 (converted). Summed up: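 Cell-free keto-to-enol tautomerization of pHPP, enol product detected spectrophotometrically as borate complex. Final 3 nM MIF and 1.5 mM ketonic pHPP in DPBS/boric acid buffer with 0.025% BSA and 300 μM CHAPS, pH 6.0, room temperature; initial rates from absorbance slopes give mean pIC50.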
Consider `Oc1ccc(N2CCN(c3nc(-n4ncc5ccccc54)c4ncn(Cc5nnn[nH]5)c4n3)CC2)cc1` [Example 17, 4-(4-(9-((1H-tetrazol-5-yl)methyl)-6-(1H-indazol-1-yl)-9H-purin-2-yl)piperazin-1-yl)phenol], for which the IC50 is 100 to 977 nM.
With `CC(C(=O)O)n1cnc2c(-n3ncc4ccccc43)nc(N3CCN(c4ccc(O)cc4)CC3)nc21` (centres unmarked) [Example 124, 2-(2-(4-(4-hydroxyphenyl)piperazin-1-yl)-6-(1H-indazol-1-yl)-9H-purin-9-yl)propanoic acid] the figure was 10 to 97.7 nM; with `Nc1nc(N2CCN(c3ccc(O)cc3)CC2)nc2c1ncn2-c1ccccc1F` [Example 71, 4-(4-(6-amino-9-(2-fluorophenyl)-9H-purin-2-yl)piperazin-1-yl)phenol], 1000 to 9770 nM; with `O=C(O)C1CCN(c2nc(N3CCN(c4ccc(O)cc4)CC3)nc3c2ncn3-c2ccncc2)C1` (centres unmarked) [Example 164, 1-(2-(4-(4-hydroxyphenyl)piperazin-1-yl)-9-(pyridin-4-yl)-9H-purin-6-yl)pyrrolidine-3-carboxylic acid], 10 to 97.7 nM.
As for `OCCCNc1nc(N2CCN(c3ccc(O)cc3)CC2)nc2c1ncn2-c1cccnc1` [Example 113, 4-(4-(6-((3-hydroxypropyl)amino)-9-(pyridin-3-yl)-9H-purin-2-yl)piperazin-1-yl)phenol], the IC50 was 100 to 977 nM.
As to `N#Cc1ccc2c(cnn2-c2nc(N3CCN(c4ccc(O)cc4)CC3)nc3c2ncn3CC(=O)O)c1` [Example 52, 2-(6-(5-cyano-1H-indazol-1-yl)-2-(4-(4-hydroxyphenyl)piperazin-1-yl)-9H-purin-9-yl)acetic acid], the IC50 was 10 to 97.7 nM.
To `O=C(Cn1cnc2c(-n3ncc4ccccc43)nc(N3CCN(c4ccc(O)cc4)CC3)nc21)NS(=O)(=O)c1ccccc1` [Example 97, 2-(2-(4-(4-hydroxyphenyl)piperazin-1-yl)-6-(1H-indazol-1-yl)-9H-purin-9-yl)-N-(phenylsulfonyl)acetamide] belongs 100 to 977 nM; to `OCC(CO)Nc1nc(N2CCN(c3ccc(O)cc3)CC2)nc2c1ncn2-c1ccncc1` [Example 173, 2-((2-(4-(4-hydroxyphenyl)piperazin-1-yl)-9-(pyridin-4-yl)-9H-purin-6-yl)amino)propane-1,3-diol], 10 to 97.7 nM.
Consider `OCCn1cnc2c(-n3cnc4ccccc43)nc(N3CCN(c4ccc(O)cc4)CC3)nc21` [Example 9, 4-(4-(6-(1H-benzo[d]imidazol-1-yl)-9-(2-hydroxyethyl)-9H-purin-2-yl)piperazin-1-yl)phenol], for which the IC50 was 100 to 977 nM.
Take `Nc1nc(N2CCN(c3ccc(O)cc3)CC2)nc2c1ncn2-c1ccc(C(=O)O)cc1` [Example 102, 4-(6-amino-2-(4-(4-hydroxyphenyl)piperazin-1-yl) 9H-purin-9-yl)benzoic acid]: the IC50 is 1000 to 9770 nM.
As to `CCOc1ncccc1-n1cnc2c(N)nc(N3CCN(c4ccc(O)cc4)CC3)nc21` [Example 83, 4-(4-(6-amino-9-(2-ethoxypyridin-3-yl)-9H-purin-2-yl)piperazin-1-yl)phenol], the IC50 is 1000 to 9770 nM.
To `O=C(O)Cn1cnc2c(-n3ncc4ccccc43)nc(N3CCN(c4ccc(O)cc4)CC3)nc21` [Example 45, 2-(2-(4-(4-hydroxyphenyl)piperazin-1-yl)-6-(1H-indazol-1-yl)-9H-purin-9-yl)acetic acid] belongs 10 to 97.7 nM; to `O=C(O)Cn1cnc2nc(N3CCN(c4ccc(O)cc4)CC3)nc(-n3ncc4ccccc43)c21` [Example 46, 2-(2-(4-(4-hydroxyphenyl)piperazin-1-yl)-6-(1H-indazol-1-yl)-7H-purin-7-yl)acetic acid], 100 to 977 nM.
With `O=C(O)Cn1cnc2c(N3CCc4ccccc43)nc(N3CCN(c4ccc(O)cc4)CC3)nc21` [Example 31, 2-(2-(4-(4-hydroxyphenyl)piperazin-1-yl)-6-(indolin-1-yl)-9H-purin-9-yl)acetic acid] the figure was 100 to 977 nM.
